Results reported in patent US6982353B2, “C2-disubstituted indan-1-ol compounds, their derivatives, processes for their preparation, and their use as pharmaceuticals” (Aventis Pharma Deutschland GmbH, priority 2001, dated 2006).

Legend:
female NMRI mice = test: Anorectic action: cumulative evaporated milk consumption after 24 h removal of feed; format: in vivo; conditions: dose 20 mg/kg (ip or po, route not specified)
Protocol: The anorectic action was tested on female NMRI mice. After removal of feed for 24 hours, the preparation to be tested was administered intraperitoneally (ip) or by gavage (po). The animals were housed singly and, with free access to drinking water, they were offered evaporated milk 30 minutes after administration of the preparation. The consumption of evaporated milk was determined and the general behavior of the animals was monitored every half an hour for 7 hours. The measured milk consumption was compared to that of vehicle-treated control animals.

melting point: 101 °C
SMILES: CS(=O)(=O)C1(F)Cc2cc(Cl)ccc2C1O (stereo not drawn) [Example 1, 5-Chloro-2-fluoro-2-methanesulfonylindan-1-ol]
Reduction in cumulative milk consumption as % of the control (female NMRI mice; compared with untreated control animals): 46% | cumulative milk consumption by treated animals (female NMRI mice; feed removed 24 h, milk offered 30 min after administration, monitored for 7 hours): 5/2.06 ml
